Results taken from PubChem BioAssay (NCI).
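Protocol summary: plate cells (96-well), add compound at 5 concentrations, incubate 48 h, interpolate endpoints linearly. TGI marks complete inhibition of growth.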

Tests used:
Test in all cases: DTP human tumour cell line panel, 48 h
[1] = tested on: RPMI-8226 leukemia
[2] = tested on: HL-60(TB) leukemia
[3] = tested on: COLO 205 colon
[4] = tested on: LOX IMVI melanoma
[5] = tested on: MCF7 breast
[6] = tested on: SK-OV-3 ovarian
[7] = tested on: A498 renal
[8] = tested on: SF-268 CNS
[9] = tested on: TK-10 renal
[10] = tested on: IGROV1 ovarian
[11] = tested on: MDA-MB-231 breast
[12] = tested on: UO-31 renal
[13] = tested on: SK-MEL-2 melanoma
[14] = tested on: OVCAR-4 ovarian
[15] = tested on: HOP-62 NSCLC
[16] = tested on: MDA-N
[17] = tested on: BT-549 breast
[18] = tested on: HCT-15 colon
[19] = tested on: HCC-2998 colon

Structure (SMILES)	TGI [1] [µM]	TGI [2] [µM]	TGI [3] [µM]	TGI [4] [µM]	TGI [5] [µM]	TGI [6] [µM]	TGI [7] [µM]	TGI [8] [µM]	TGI [9] [µM]	TGI [10] [µM]	TGI [11] [µM]	TGI [12] [µM]	TGI [13] [µM]	TGI [14] [µM]	TGI [15] [µM]	TGI [16] [µM]	TGI [17] [µM]	TGI [18] [µM]	TGI [19] [µM]
COc1ccc2oc(=N)c(C(=O)NCc3ccccc3)cc2c1	> 100	> 100	> 100	> 100	69.1	56.7	35.1	52.5	> 100	60.8	58.1	> 100	43.5	> 100	55.8	59.9	45.4	> 100	–
COC(=O)C1=CC2CCCC1(O)C(C(C)=O)C2 (stereo unspecified)	69.6	47.8	> 100	34.3	> 100	> 100	> 100	> 67.3	> 100	32.9	> 100	38.6	> 100	> 100	> 100	> 100	> 100	> 100	> 100
C=CCOc1ccc(/C(N=Nc2ccc(Cl)cc2)=N/NC(=O)c2ccccc2)cc1OC	–	> 100	> 100	> 100	> 100	–	> 100	> 100	> 100	> 100	> 100	> 100	> 100	> 100	> 100	> 100	70.3	> 100	> 100
S=c1sc2c(s1)SCCCCSCCCCSc1sc(=S)sc1SCCCCSCCCCS2	> 100	> 100	> 100	> 100	> 100	> 100	> 100	> 100	> 100	> 100	> 100	> 100	> 100	–	> 100	> 100	> 100	> 100	> 100
C=CCOc1ccc(/C(N=Nc2ccc([N+](=O)[O-])cc2)=N/NC(=O)c2ccccc2)cc1OC	–	> 100	> 100	> 100	> 100	–	> 100	> 100	> 100	> 100	> 100	> 100	> 100	> 100	> 100	> 100	> 100	> 100	> 100
O=C(C1OC1c1ccc(O)cc1)C12CC3CC(CC(C3)C1)C2 (stereo unspecified)	> 73	> 43.4	> 76.9	> 56.1	> 100	> 100	> 96.1	> 100	> 100	> 100	> 100	> 86.1	> 100	> 100	> 100	> 75	> 81.8	> 100	> 100
COc1ccc2nc(-n3c(/C=C/c4ccccc4O)nc4ccccc4c3=O)sc2c1	80.8	> 100	> 100	> 100	> 100	> 100	> 100	> 100	> 100	> 100	> 100	> 100	> 100	> 100	> 100	36.5	> 100	> 100	> 100
CC(=O)NC(CS/N=N/c1nc[nH]c1C(N)=O)C(=O)O (stereo unspecified)	> 31.6	> 23.7	> 100	> 100	> 100	> 100	> 100	> 100	> 100	> 100	> 27.8	> 100	> 100	> 100	> 100	> 100	> 100	> 100	> 27.9
CSc1ncc2c(C#N)c3sc4ccccc4n3c(=O)c2n1	> 100	> 100	> 100	> 100	> 100	> 100	> 100	52.9	> 100	> 100	> 100	> 100	> 100	> 100	> 100	> 100	> 100	> 100	> 100
CC(=O)OCOC(=O)CN(CC(=O)OCOC(C)=O)Cc1cc2c(cc1OC(C)=O)Oc1cc(OC(C)=O)c(CN(CC(=O)OCOC(C)=O)CC(=O)OCOC(C)=O)cc1C21OC(=O)c2ccccc21	–	0.0289	1.86	1.29	7.73	9.4	2.61	4.22	3	1.36	3.64	6.38	2.33	3.42	3.48	1.32	1.16	7.05	–
CN(CC1(CO)CCC1)c1cc(Cl)nc(N)n1	> 100	> 100	> 100	> 100	> 100	> 100	> 100	> 100	> 100	> 100	> 100	> 100	> 100	> 100	> 100	> 100	> 100	> 100	> 100
CCC1C(C#N)=C(N)OC2=C1C(=O)CC(C)(C)C2 (stereo unspecified)	> 100	> 100	> 100	> 100	> 100	> 100	> 100	> 100	> 100	> 100	> 100	–	> 100	> 100	> 100	> 100	> 100	> 100	> 100
CC(NNC(=O)c1ccncc1)c1ccc(F)cc1 (stereo unspecified)	–	> 100	> 100	> 100	> 100	> 100	> 100	> 100	> 100	> 100	> 100	> 100	> 100	> 100	> 100	> 100	> 100	> 100	> 100
COc1ccc(OCc2nc3cc(C(F)(F)F)ccc3nc2-c2ccccc2)cc1	> 100	> 100	> 100	> 100	> 100	> 100	> 100	> 100	> 100	–	> 100	> 100	> 100	> 100	> 100	> 100	> 100	> 100	> 100
CCN(CC)CCC(=O)c1ccc(Oc2ccc(Cl)cc2)cc1	16.3	59.8	45.1	28.8	55.9	–	31.7	34.5	33.1	41.8	29.2	32.4	32	36.1	24.1	29.6	32.6	38.8	34.2
O=C1C=C2C(=NC34CCCCC3C(c3ccccc3)C3=C(c5ccccc5CC3)N24)c2ccccc21 (stereo unspecified)	> 10	> 10	> 10	> 10	> 10	> 10	> 10	> 10	> 10	> 10	> 10	–	> 10	> 10	> 10	> 10	> 10	> 10	> 10
CCC1NC(=O)C1NC(=O)OC (stereo unspecified)	> 100	> 100	> 100	> 100	> 100	> 100	> 100	–	> 100	> 100	> 100	> 100	> 100	> 100	> 100	> 100	> 100	> 100	> 100
CC(=O)CCCCC(=O)Nc1ccc(CC(NC(=O)OC(C)(C)C)C(=O)NCC(=O)OCc2ccccc2)cc1 (stereo unspecified)	39.5	43.6	34.7	29.3	49.5	52.7	60.6	48.3	> 100	> 100	48.3	39.2	–	27.6	26.8	38.6	28.6	> 100	38
NC1CC(=O)c2sc(I)cc21 (stereo unspecified)	> 100	78.7	> 100	–	> 100	> 100	> 100	> 100	> 100	> 100	> 100	> 100	> 100	–	> 100	> 100	> 100	> 100	> 100
CCCC1(NC(=O)C(F)(F)F)CC(OC)OC2COC(c3ccccc3)OC21 (stereo unspecified)	–	95.3	48.6	> 100	> 100	> 100	> 100	> 100	–	> 100	> 100	> 100	> 100	> 100	> 100	> 100	> 100	> 100	> 100
